Measured values as given in US12428406B2 (PMV Pharmaceuticals, Inc., priority 2019, dated 2025).

target: T1, p53 Y220C (Homo sapiens, UniProt P04637, Y220C); assay: In vitro DNA binding activity assay (HTRF / TR-FRET): stabilization of p53 Y220C and increase of its DNA binding activity; format: biochemical; settings: recombinant His-tagged p53 Y220C DNA binding domain (aa 94-312), biotin-labeled consensus DNA, incubated at 27° C. or 29° C. for 60 min
T1 construct: The recombinant protein was a truncation mutant containing only amino acids 94-312 of p53; made in house; host or cells: E. coli
T1 sequence (P04637 94-312, change not shown): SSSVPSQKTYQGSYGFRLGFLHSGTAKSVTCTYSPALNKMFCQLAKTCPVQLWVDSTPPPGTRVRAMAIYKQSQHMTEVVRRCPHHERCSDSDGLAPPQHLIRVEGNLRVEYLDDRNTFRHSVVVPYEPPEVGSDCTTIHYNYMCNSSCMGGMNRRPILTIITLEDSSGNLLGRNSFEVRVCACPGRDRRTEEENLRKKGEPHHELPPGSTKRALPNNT
Procedure, shortened: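 Compound effect on DNA binding of recombinant His-p53 Y220C (E. coli) to biotin-labeled consensus DNA, expressed as SC150, the concentration giving 50% increase versus untreated. Serial 3-fold DMSO dilutions of 4.5 mM stocks; room-temperature steps of 15 then 20 min.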

SMILES	SC150 (concentration of the compound required to increase the DNA binding activity by 50%)
COCCN(C)[C@H]1CC[C@H](Nc2cccc3c2cc(C#CCNc2ccc(S(N)(=O)=O)cc2OCC#N)n3CC(F)(F)F)CC1 [Compound 164A, 3-(cyanomethoxy)-4-{[3-(4-{[(1R,4R)-4-[(2-methoxyethyl) (methyl)amino]cyclo-hexyl]amino}-1-(2,2,2-trifluoroethyl)-1H-indol-2-yl)prop-2-yn-1-yl]amino}benzene-1-sulfonamide]	+ (+ = 0 μM ≤ SC150 < 0.05 μM)
COc1cc(C(=O)N2CC3(COC3)C2)ccc1NCC#Cc1cc2c(N[C@@H]3CCN(C)C[C@@H]3F)cccc2n1CC(F)(F)F [Compound 906A, N-[(3S,4R)-3-fluoro-1-methylpiperidin-4-yl]-2-{3-[(2-methoxy-4-{2-oxa-6-azaspiro[3.3]heptane-6-carbonyl}phenyl)amino]prop-1-yn-1-yl}-1-(2,2,2-trifluoroethyl)-1H-indol-4-amine]	+ (+ = 0 μM ≤ SC150 < 0.05 μM)
CNC(=O)c1ccc(NCC#Cc2cc3c(NC4CCN(CC(O)COC)CC4)cccc3n2CC(F)(F)F)c(OCF)c1 (centres unmarked) [Compound 663A, 3-(fluoromethoxy)-4-{[3-(4-{[1-(2-hydroxy-3-methoxypropyl)piperidin-4-yl]amino}-1-(2,2,2-trifluoroethyl)-1H-indol-2-yl)prop-2-yn-1-yl]amino}-N-methylbenzamide]	+ (+ = 0 μM ≤ SC150 < 0.05 μM)
COc1cc(S(N)(=O)=O)ccc1NCC#Cc1cc2c(N[C@H]3CC[C@H](N4CC5COCC5C4)CC3)cccc2n1CC(F)(F)F (stereo partly drawn) [Compound 430A, 3-methoxy-4-{[3-(4-{[(1R,4R)-4-{hexahydro-1H-furo[3,4-c]pyrrol-5-yl}cyclohexyl]amino}-1-(2,2,2-trifluoroethyl)-1H-indol-2-yl)prop-2-yn-1-yl]amino}benzene-1-sulfonamide]	+ (+ = 0 μM ≤ SC150 < 0.05 μM)
COC(=O)[C@H](CCC(N)=O)NC(=O)c1ccc(NCC#Cc2cc3c(N[C@@H]4CCN(C)C[C@@H]4F)cccc3n2CC(F)(F)F)c(OC)c1 [Compound 956A, methyl (2S)-4-carbamoyl-2-[(4-{[3-(4-{[(3S,4R)-3-fluoro-1-methylpiperidin-4-yl]amino}-1-(2,2,2-trifluoroethyl)-1H-indol-2-yl)prop-2-yn-1-yl]amino}-3-methoxyphenyl)formamido]butanoate]	+ (+ = 0 μM ≤ SC150 < 0.05 μM)
COc1cc(S(C)(=O)=O)ccc1NCC#Cc1cc2c(NC3CCN(CCOC(=O)C(C)C)CC3)cccc2n1CC(F)(F)F [Compound 584A, 2-{4-[(2-{3-[(4-methanesulfonyl-2-methoxyphenyl)amino]prop-1-yn-1-yl}-1-(2,2,2-trifluoroethyl)-1H-indol-4-yl)amino]piperidin-1-yl} ethyl 2-methylpropanoate]	+ (+ = 0 μM ≤ SC150 < 0.05 μM)
CS(=O)(=O)c1ccc(NCC#Cc2cc3c(N[C@H]4CC[C@H](N5CC6(COC6)C5)CC4)cccc3n2CC(F)(F)F)c(Cl)c1 [Compound 289A, 2-{3-[(2-chloro-4-methanesulfonyl-phenyl)amino]prop-1-yn-1-yl}-N-[(1R,4R)-4-{2-oxa-6-azaspiro[3.3]heptan-6-yl}cyclo-hexyl]-1-(2,2,2-trifluo-roethyl)-1H-indol-4-amine]	+ (+ = 0 μM ≤ SC150 < 0.05 μM)
COc1cc(C(=O)O)ccc1NCC#Cc1cc2c(NC3CCN(CCCS(C)(=O)=O)CC3)cccc2n1CC(F)(F)F [Compound 707A, 4-{[3-(4-{[1-(3-methanesulfonylpropyl)piperidin-4-yl]amino}-1-(2,2,2-trifluoroethyl)-1H-indol-2-yl)prop-2-yn-1-yl]amino}-3-methoxybenzoic acid]	+ (+ = 0 μM ≤ SC150 < 0.05 μM)
COc1cc(S(N)(=O)=O)ccc1NCC#Cc1cc2c(NC(CCO)CCO)cccc2n1CC(F)(F)F [Compound 4A, 4-[(3-{4-[(1,5-dihydroxypentan-3-yl)amino]-1-(2,2,2-trifluoroethyl)-1H-indol-2-yl}prop-2-yn-1-yl)amino]-3-methoxybenzene-1-sulfonamide]	+ (+ = 0 μM ≤ SC150 < 0.05 μM)
CCC(=O)OCC(O)CN1CCC(Nc2cccc3c2cc(C#CCNc2ccc(S(C)(=O)=O)cc2OC)n3CC(F)(F)F)CC1 (centres unmarked) [Compound 594A]	+ (+ = 0 μM ≤ SC150 < 0.05 μM)
COc1cc(S(C)(=O)=O)ccc1NCC#Cc1cc2c(N[C@@H]3CCN(C(=O)CN(C)C)C[C@@H]3F)cccc2n1CC(F)(F)F [Compound 855A, 2-(dimethylamino)-1-[(3S,4R)-3-fluoro-4-[(2-{3-[(4-methanesulfonyl-2-methoxyphenyl)amino]prop-1-yn-1-yl}-1-(2,2,2-trifluoroethyl)-1H-indol-4-yl)amino]piperidin-1-yl]ethan-1-one]	+ (+ = 0 μM ≤ SC150 < 0.05 μM)
COCC(O)CN1CCC(Nc2cccc3c2cc(C#CCNc2ccc(S(=O)(=O)c4ccccc4)cc2OC)n3CC(F)(F)F)CC1 (centres unmarked) [Compound 691A, 1-(4-{[2-(3-{[4-(benzenesulfonyl)-2-methoxyphenyl]amino}prop-1-yn-1-yl)-1-(2,2,2-trifluoroethyl)-1H-indol-4-yl]amino}piperidin-1-yl)-3-methoxypropan-2-ol]	+ (+ = 0 μM ≤ SC150 < 0.05 μM)
COCC(O)CN1CCC(Nc2cccc3c2cc(C#CCNc2ccc(S(C)(=O)=O)cc2OC)n3CC#N)CC1 (centres unmarked) [Compound 699A, 2-(4-{[1-(2-hydroxy-3-methoxypropyl)piperidin-4-yl]amino}-2-{3-[(4-methanesulfonyl-2-methoxyphenyl)amino]prop-1-yn-1-yl}-1H-indol-1-yl)acetonitrile]	+ (+ = 0 μM ≤ SC150 < 0.05 μM)
COc1cc(C(=O)O)ccc1NCC#Cc1cc2c(N[C@H]3CCN(C(C)C)C[C@H]3F)cccc2n1CC(F)(F)F [Compound 810A, 4-{[3-(4-{[(3R,4S)-3-fluoro-1-(propan-2-yl)piperidin-4-yl]amino}-1-(2,2,2-trifluoroethyl)-1H-indol-2-yl)prop-2-yn-1-yl]amino}-3-methoxybenzoic acid]	+ (+ = 0 μM ≤ SC150 < 0.05 μM)
COc1cc(C(=O)NCC(CO)OC)ccc1NCC#Cc1cc2c(N[C@@H]3CCN(C)C[C@@H]3F)cccc2n1CC(F)(F)F (single isomer, unassigned) [Compound 966A]	+ (+ = 0 μM ≤ SC150 < 0.05 μM)
COc1cc(NC2CCOCC2)c2cc(C#CCNc3ccc(S(N)(=O)=O)cc3OC)n(CC(F)(F)F)c2c1 [Compound 1013A, 3-methoxy-4-[(3-{6-methoxy-4-[(oxan-4-yl)amino]-1-(2,2,2-trifluoroethyl)-1H-indol-2-yl}prop-2-yn-1-yl)amino]benzene-1-sulfonamide]	+++ (+++ = 0.1 μM ≤ SC150 < 0.2 μM)
CNC(=O)c1ccc(NCC#Cc2cc3c(N[C@H]4CC[C@H](N(C)C)CC4)cccc3n2CC(F)(F)F)c(OC)c1 [Compound 74A, 3-methoxy-N-methyl-4-{[3-(4-{[(1R,4R)-4-(dimethylamino)cyclohexyl]amino}-1-(2,2,2-trifluoroethyl)-1H-indol-2-yl)prop-2-yn-1-yl]amino}benzamide]	+ (+ = 0 μM ≤ SC150 < 0.05 μM)
COc1cc(S(C)(=O)=O)ccc1NCC#Cc1cc2c(NC3CCN(CC(C)(C)OC)CC3)cccc2n1CC(F)(F)F [Compound 692A, 2-{3-[(4-methanesulfonyl-2-methoxyphenyl)amino]prop-1-yn-1-yl}-N-[1-(2-methoxy-2-methylpropyl)piperidin-4-yl]-1-(2,2,2-trifluoroethyl)-1H-indol-4-amine]	+ (+ = 0 μM ≤ SC150 < 0.05 μM)
COc1cc(S(C)(=O)=O)ccc1NCC#Cc1cc2c(N[C@@H]3CCC4(C[C@@H]3F)OCCO4)cccc2n1CC(F)(F)F [Compound 870A, N-[(7S,8R)-7-fluoro-1,4-dioxaspiro[4.5]decan-8-yl]-2-{3-[(4-methanesulfonyl-2-methoxyphenyl)amino]prop-1-yn-1-yl}-1-(2,2,2-trifluoroethyl)-1H-indol-4-amine]	+ (+ = 0 μM ≤ SC150 < 0.05 μM)
COc1cc(S(C)(=O)=O)ccc1NCC#Cc1cc2c(N[C@H]3CCC[C@@H](O)C3)cccc2n1CC(F)(F)F (relative stereo) [Compound 30A, rel-(1R,3S)-3-[(2-{3-[(4-methanesulfonyl-2-methoxyphenyl)amino]prop-1-yn-1-yl}-1-(2,2,2-trifluoroethyl)-1H-indol-4-yl)amino] cyclohexan-1-ol]	+ (+ = 0 μM ≤ SC150 < 0.05 μM)
COc1cc(S(C)(=O)=O)ccc1NCC#Cc1cc2c(NC3CCN(CCC#N)CC3)cccc2n1CC(F)(F)F [Compound 686A]	+ (+ = 0 μM ≤ SC150 < 0.05 μM)
COc1cc(C(N)=O)ccc1NCC#Cc1cc2c(N[C@H]3CC[C@@H](N4CC5(COC5)C4)CC3)cccc2n1CC(F)(F)F [Compound 213A, 3-methoxy-4-{[3-(4-{[(1S,4S)-4-{2-oxa-6-azaspiro[3.3]heptan-6-yl}cyclohexyl]amino}-1-(2,2,2-trifluoroethyl)-1H-indol-2-yl)prop-2-yn-1-yl]amino}benzamide]	+ (+ = 0 μM ≤ SC150 < 0.05 μM)
CNC(=O)c1ccc(NCC#Cc2cc3c(NC4CCN(CC(C)O)CC4)cccc3n2CC(F)(F)F)c(OC)c1 (centres unmarked) [Compound 596A, 4-{[3-(4-{[1-(2-hydroxypropyl)piperidin-4-yl]amino}-1-(2,2,2-trifluoroethyl)-1H-indol-2-yl)prop-2-yn-1-yl]amino}-3-methoxy-N-methylbenzamide]	+ (+ = 0 μM ≤ SC150 < 0.05 μM)
